Assay results taken from patent publication US7579366B2, “Epothilone derivatives and their synthesis and use” (The Scripps Research Institute, priority 1998, dated 2009).
pIC50: −log10 of the molar value.

Key:
[1] = from C/C(=C\I)[C@@H](O)C/C=C(\CCC[C@H](C)[C@H](O[Si](C)(C)C(C)(C)C)[C@@H](C)C(=O)C(C)(C)[C@H](CC(=O)O)O[Si](C)(C)C(C)(C)C)COC(c1ccccc1)(c1ccccc1)c1ccccc1; ester bond; 2,4,6-trichlorobenzoyl chloride, Et3N, 4-DMAP (Yamaguchi); toluene; 4.66 mM; 75.0 °C; 2.5 h
[2] = molecular target: T1, pig brain microtubuli protein (tubulin plus microtubuli-associated proteins) (Sus scrofa, UniProt P02554); experiment: Induction of tubulin polymerisation, pig brain microtubuli, compared with 25 μM epothilone B; format: biochemical; conditions: 5 μM test compound versus epothilone B at 25 μM (in %)
T1 construct: Microtubuli-protein is obtained from pig brain by two cycles of temperature dependent depolymerisation/polymerisation; from tissue; host or cells: pig brain
Protocol: Stock solutions of the test compounds are made in DMSO and stored at −20° C. Microtubuli-protein is obtained from pig brain by two cycles of temperature dependent depolymerisation/polymerisation, as described (see Weingarten et al., Biochemistry 1974; 13: 5529-37). Working stock solutions of microtubule protein (meaning tubulin plus microtubuli-associated proteins) are stored at −70° C. The degree of the microtubuli protein polymerisation induced by a test compound is measured essentially as known from the literature (see Lin et al., Cancer Chem. Pharm. 1996; 38:136-140). In short, 5 μl stock solution of the test compound are pre-mixed in the twenty-fold of the desired final concentration with 45 μl of water at room temperature, and the mixture is then placed on ice. […] As indirect measure for the tubulin-polymerisation the protein concentration of the supernatant (which contains the rest of the un-polymerised, soluble microtubuli protein) is determined according to the Lowry method (DC Assay Kit, Bio-Rad Laboratories, Hercules, Calif.), and the optical density (OD) of the color reaction is determined at 750 nm with a spectrometer (SpectraMax 340, Molecular Devices, Sunnyvale, Calif.). […]

KB-31 cells = experiment: Cell growth inhibition, KB-31 epidermoid carcinoma cells; format: cell-based; conditions: Homo sapiens, KB 3-1
Protocol: (§1) Stock solutions of the test compound of formula I 10 mM) in DMSO are prepared and stored at −20° C. Human KB-31 and (multidrug-resistant, P-gp 170 overexpressing) KB-8511 epidermoid carcinoma cells are from Dr. M. Baker, Roswell Park Memorial Institute (Buffalo, N.Y., USA) (for description see also Akiyama et al., Somat. Cell. Mol. Genetics 11, 117-126 (1985) und Fojo A., et al., Cancer Res. 45, 3002-3007 (1985)—KB-31 und KB-8511 both are derivatives of the KB-cell line (American Type Culture Collection) and are human epidermoid carcinoma cells. KB-31 cells can be cultivated in mono-layers using calf serum (M.A. Bioproducts), L-glutamine (Flow), penicillin (50 Units/ml) und streptomycin (50 μg/ml (Flow); they then grow with a doubling rate of about 22 hours, and the relative efficiency of plating them out lies at about 60%. […] After washing again, the stain is eluted with 3% HCl and the optical density at 665 nm is measured with a SpectraMax 340 (Molecular Devices, Sunnyvale, Calif.). IC50-values are determined by mathematically fitting the data to curves using the SoftPro2.0 program (Molecular Devices, Sunnyvale, Calif.) and the formula [(OD treated)−(OD start)]/[(OD control)−(OD start)]×100. […]

KB-8511 cells = experiment: Cell growth inhibition, KB-8511 epidermoid carcinoma cells (P-gp overexpressing); format: cell-based; conditions: Homo sapiens
Protocol: as §1

A549 cells = experiment: Cell growth inhibition, A549 lung cells; format: cell-based; conditions: Homo sapiens
HCT-15 cells = experiment: Cell growth inhibition, HCT-15 colon cells; format: cell-based; conditions: Homo sapiens
HCT-116 cells = experiment: Cell growth inhibition, HCT-116 colon cells; format: cell-based; conditions: Homo sapiens
DU145 cells = experiment: Cell growth inhibition, DU145 prostate cells; format: cell-based; conditions: Homo sapiens, DU-145
PC-3M cells = experiment: Cell growth inhibition, PC-3M prostate cells; format: cell-based; conditions: Homo sapiens
MCF-7 cells = experiment: Cell growth inhibition, MCF-7 breast cells; format: cell-based; conditions: Homo sapiens, MCF7
MCF-7/ADR cells = experiment: Cell growth inhibition, MCF-7/ADR breast cells (multidrug resistant); format: cell-based; conditions: Homo sapiens, NCI/ADR-RES

T1 sequence (P02554 whole entry): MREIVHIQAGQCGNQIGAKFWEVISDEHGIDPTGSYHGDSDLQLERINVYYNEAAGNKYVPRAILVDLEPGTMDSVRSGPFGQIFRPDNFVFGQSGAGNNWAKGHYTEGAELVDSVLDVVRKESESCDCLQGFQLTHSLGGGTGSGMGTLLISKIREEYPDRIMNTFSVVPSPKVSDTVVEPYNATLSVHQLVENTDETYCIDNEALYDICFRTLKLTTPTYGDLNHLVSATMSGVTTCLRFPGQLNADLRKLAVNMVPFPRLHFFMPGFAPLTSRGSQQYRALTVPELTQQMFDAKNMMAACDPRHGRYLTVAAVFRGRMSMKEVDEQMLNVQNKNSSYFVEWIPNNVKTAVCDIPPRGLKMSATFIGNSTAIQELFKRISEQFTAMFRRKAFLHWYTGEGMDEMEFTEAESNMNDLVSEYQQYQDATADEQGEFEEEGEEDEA
T1 sequence (P02550 whole entry partner): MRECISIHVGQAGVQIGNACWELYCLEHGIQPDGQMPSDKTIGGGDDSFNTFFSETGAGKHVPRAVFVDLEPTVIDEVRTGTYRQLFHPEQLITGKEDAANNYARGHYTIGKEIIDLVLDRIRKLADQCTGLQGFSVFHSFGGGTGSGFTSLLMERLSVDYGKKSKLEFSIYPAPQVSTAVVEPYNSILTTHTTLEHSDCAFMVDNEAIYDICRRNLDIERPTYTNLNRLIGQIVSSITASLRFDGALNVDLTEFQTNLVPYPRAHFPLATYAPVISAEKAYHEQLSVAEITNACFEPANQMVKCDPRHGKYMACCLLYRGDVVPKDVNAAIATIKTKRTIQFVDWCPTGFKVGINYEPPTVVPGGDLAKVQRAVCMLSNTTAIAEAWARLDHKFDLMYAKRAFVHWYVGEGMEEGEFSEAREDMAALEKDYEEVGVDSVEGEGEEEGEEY

Structure (SMILES) | ring closure, yield of all isomers [1] [%] | Tubulin (%): induction of tubulin polymerisation [2] [%] | pIC50 (KB-31 cells) | pIC50 (KB-8511 cells) | pIC50 (A549 cells) | pIC50 (HCT-15 cells) | pIC50 (HCT-116 cells) | pIC50 (DU145 cells) | pIC50 (PC-3M cells) | pIC50 (MCF-7 cells) | pIC50 (MCF-7/ADR cells)
C/C(=C\I)[C@@H]1C/C=C(/COC(c2ccccc2)(c2ccccc2)c2ccccc2)CCC[C@H](C)[C@H](O[Si](C)(C)C(C)(C)C)[C@@H](C)C(=O)C(C)(C)[C@@H](O[Si](C)(C)C(C)(C)C)CC(=O)O1 | 84 | – | – | – | – | – | – | – | – | – | –
C/C(=C\c1ccc(C)cn1)[C@@H]1C[C@@H]2O[C@]2(C)CCCC(C)[C@H](O)C(C)C(=O)C(C)(C)C(O)CC(=O)O1 (some centres unmarked) [D (Example 1), 5-Methylpyridine Analogue D of Epothilone B] | – | 88.9 | 9.97 | 9.98 | 9.77 | 9.61 | 9.68 | 9.60 | 9.44 | 9.94 | 9.07
